Data on 20 compounds can be found in US9371337B2, “β-lactamase inhibitors” (The Regents of the University of California, priority 2011, dated 2016).

Read-outs that look alike come from different tables or passages of the source.

For the experiment, the target named is T1, AmpC β-lactamase (Escherichia coli, UniProt P00811).
T1 construct: made in house
In words: biochemical. Format: biochemical. The protocol: FIG. 18. Representative IC50 curves. […] IC50 curves were obtained by measuring rates (in duplicates) at different inhibitor concentrations (x-axis) and by determining the residual activity (y-axis, in percentage). IC50 values were determined by non-linear regression and Ki values calculated using GraphPad software assuming competitive inhibition.
Sulfonamidomethaneboronic acids were dissolved in 100% DMSO at a concentration of 100 mM; more diluted stocks were prepared as necessary. […] The enzyme was expressed and purified as described (Usher, K. C. et al., Biochemistry 1998, 37, 16082-16092) and CENTA was purchased from Tydock Pharma.
Kinetic measurements were run at room temperature in 50 mM sodium-cacodylate pH 6.5 in the presence of 0.01% Triton-X to prevent non-specific inhibition via compound aggregation. […] (Kettner, C. A. and Shenvi, A. B., J. Biol. Chem. 1984, 259, 15106-15114) Reactions were performed in 1 mL cuvettes with 60 μM CENTA and initiated by adding 1.2 nM enzyme. […] (Weston, G. S. et al., J. Med. Chem. 1998, 41, 4577-4586) The first 180 sec of each reaction were used to measure initial rates. IC50 values were obtained by fitting binding data to a sigmoidal dose-response equation using GraphPad Prism (GraphPad software, Inc). Ki values were determined by the use of Cheng-Prusoff equation. (Cheng, Y. and Prusoff, W. H., Biochem. Pharmacol. 1973, 22, 3099-3108)

T1 sequence (P00811 20-377): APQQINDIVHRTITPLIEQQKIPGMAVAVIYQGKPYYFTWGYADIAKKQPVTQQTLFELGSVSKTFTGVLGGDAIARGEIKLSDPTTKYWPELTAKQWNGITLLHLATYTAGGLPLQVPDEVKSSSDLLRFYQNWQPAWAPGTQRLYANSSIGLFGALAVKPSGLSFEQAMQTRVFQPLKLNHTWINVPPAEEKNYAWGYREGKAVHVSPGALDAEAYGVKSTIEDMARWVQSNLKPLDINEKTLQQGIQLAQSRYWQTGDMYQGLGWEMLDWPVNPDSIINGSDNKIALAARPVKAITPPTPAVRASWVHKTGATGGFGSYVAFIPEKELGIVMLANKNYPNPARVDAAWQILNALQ

For orientation: Ki means a dissociation constant, usually derived from enzyme kinetics or from competition with a known ligand. As for `Cc1ccc(S(=O)(=O)N(C)CB(O)O)cc1` [CR14], the Ki (Ki Vs AmpC, Table 7) came to 630 nM.

The compound `Cc1ccc(S(=O)(=O)N(CB(O)O)C(C)(C)C)cc1` [CR17] gave an inhibition constant Ki (Ki Vs AmpC, Table 7) of 2500 nM.

Compound `CC(C)(C)N(CB(O)O)S(=O)(=O)Cc1ccccc1` [CR22] gave an inhibition constant (Ki) (Ki Vs AmpC, Table 7) of 5100 nM.

Consider `N#Cc1ccc(S(=O)(=O)NCB(O)O)cc1` [CR162, [4-cyanobenzensulfonylamino]methaneboronic acid], for which the Ki is 310 nM (Ki Vs AmpC, Table 7) and 310 nM (Ki vs AmpC, Table 8).

`N#Cc1ccc(S(=O)(=O)NCB(O)O)cn1` [CR163, [6-cyanopyridin-3-sulfonylamino]methaneboronic acid hydrocloride]: the inhibition constant (Ki) by setting is: (Ki Vs AmpC, Table 7) 270 nM; (Ki vs AmpC, Table 8) 270 nM.

On to `CC(C)[C@H](NS(=O)(=O)Cc1ccccc1)B(O)O` [CR173, (1R)-1-(Phenylmethanesulfonylamino)-2-methylpropaneboronic acid], for which, where the note is “Ki Vs AmpC, Table 7”, affinity was put at a Ki of 13000 nM.

Regarding `CC(C)[C@H](NS(C)(=O)=O)B(O)O` [CR175, (1R)-1-(Methylsulfonylamino)-2-methylpropaneboronic acid], the inhibitory constant (Ki) (Ki Vs AmpC, Table 7) was found to be 100000 nM.

Turning to `CC1(C)OB(c2ccccc2NS(=O)(=O)Cc2ccccc2)OC1(C)C` [CR180, Pinacol 2-(phenylmethanesulfonylamino)phenylboronate], for the setting “Table 7, read-out: Ki Vs AmpC”, the inhibition constant Ki stood at 200 nM.

Regarding `CC1(C)OB(c2ccccc2NS(C)(=O)=O)OC1(C)C` [CR181, Pinacol 2-(methylsulfonylamino)phenylboronate], the Ki (Table 7, read-out: Ki Vs AmpC) came to 400 nM.

The compound `CS(=O)(=O)NCB(O)O` [Compound 3, Pinacol(methanesulfonylamino)methaneboronate] gave a Ligand efficiency of 0.91. Under “Ki vs AmpC, Table 8”, this compound returned an inhibition constant (Ki) of 800 nM. Besides, the “improvement of potency compared to the carboxamide analog” value (ratio of Ki values) stood at 23 fold. The Ki (read-out: Ki) was 789 nM.

As for `O=[N+]([O-])c1cccc(CS(=O)(=O)NCB(O)O)c1` [Compound 6], the Ki (Table 7, read-out: Ki Vs AmpC) worked out at 189 nM.

As to `COC(=O)c1ccc(CS(=O)(=O)NCB(O)O)cc1` [Compound 8], the Ki (Table 7, read-out: Ki Vs AmpC) was found to be 120 nM.

`CCOc1ccc2ccccc2c1S(=O)(=O)NCB(O)O` [Compound 11, (2-Ethoxy-naphthalene-1-sulfonylamino)methaneboronic acid]: under “read-out: Ki”, the Ki was 670 nM.

On to `O=S(=O)(Cc1ccccc1)N[C@@H](Cc1ccccc1)B(O)O` [Compound 16, (1R)-1-(phenylmethanesulfonylamino)-2-phenylethaneboronic acid], for which the Ki amounted to 3720 nM (Table 1, read-out: Ki) and 3720 nM (Table 7, read-out: Ki Vs AmpC).

In the case of `O=C(Cc1cccs1)N[C@@H](Cc1cccc(C(=O)O)c1)B(O)O` [Compound 17c, reference compound], the Ki (Table 1, read-out: Ki) stood at 39 nM.

`C[C@H](NS(C)(=O)=O)B(O)O` [GBS32, (1R)-1-(Methylsulfonylamino)-1-ethaneboronic acid]: the affinity (Ki Vs AmpC, Table 7), expressed as Ki, was 650 nM.

Turning to `C[C@H](NS(=O)(=O)Cc1ccccc1)B(O)O` [GBS34, (1R)-1-(Phenylmethanesulfonylamino)-1-ethaneboronic acid], the inhibition constant (Ki) (Ki Vs AmpC, Table 7) is 310 nM.

Take `O=C(Cc1cccs1)N[C@H](B(O)O)c1cccc(C(=O)O)c1` [SM23, reference compound]: the Ligand efficiency (Table 5) turned out to be 0.55.

On to “Pinacol(3-cyanopropane-1-sulfonylamino)methaneboronate [CR135]”, for which the Ki (Table 7, read-out: Ki Vs AmpC) turned out to be 200 nM.

Turning to “Pinacol(isopropylsulfonylamino)methaneboronate [GBS22]”, the inhibition constant (Ki) (Table 7, read-out: Ki Vs AmpC) was 100 nM.
